Measured values from PMC4210147, “Sequence-Specific Dimerization of a Transmembrane Helix in Amphipol A8-35” (PLoS ONE, 2014).

How the values were obtained:
[1] = Far-UV circular dichroism, secondary structure content of GpA TM domain; format: physicochemical; details: 25°C; for α-helix content: unlabeled GpA peptide 5 µM, DICHROWEB CDSSTR, reference set 7, at least three averaged scans
Experimental: CD spectra were recorded on a Jasco J-815 spectropolarimeter at 25°C in a step-scan mode using 0.1-cm path length quartz cells from Hellma (Mülheim, Germany). The concentration of unlabeled GpA peptide was 5 µM. Data points were collected at a resolution of 1 nm, an integration time of 1 s, and a bandwidth of 1 nm. Each shown spectrum results from at least three averaged scans from which buffer scans were subtracted. The measured ellipticity θ was converted to molar ellipticity [θ] by: [drawing 8] (5) where M is the molar mass, L the path length, and C the peptide concentration.
The GpA TM domain was reconstituted in 10 mM phosphate buffer (pH 7.4) containing A8-35 as well as in several solvents containing SDS, DDM, or pure TFE, which are known to stabilize α-helical structures. Prior to CD measurements, samples were treated in the same way as described above for FRET measurements. Secondary structure contents were estimated with the DICHROWEB software, [31] using both soluble and TM proteins as reference datasets (CDSSTR method, reference set 7).

[2] = target: T1, human GpA TM domain (Homo sapiens, UniProt P02724); assay: FRET at different acceptor mole ratios, stoichiometry of GpA TM domain association; format: binding; details: constant total peptide, linear dependence, n = 2
T1 construct: purchased Peptide Specialty Laboratories, Heidelberg, Germany; host or cells: chemical synthesis (custom peptide)
T1 sequence (P02724 88-120 limits assumed) 1: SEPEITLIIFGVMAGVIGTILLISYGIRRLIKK
T1 sequence (P02724 88-120 limits assumed) 2: T1 sequence (P02724 88-120 limits assumed) 1
Experimental: […] Concentrations of the peptide stock solutions were determined from absorbance measurements on a Perkin Elmer Lambda 35 UV/VIS spectrophotometer. […] Peptides dissolved in TFE and A8-35 dissolved in ethanol were mixed, and organic solvents were removed under a gentle stream of nitrogen gas. Residual solvent traces were removed by vacuum desiccation overnight. The dried peptide/polymer film was then hydrated in 10 mM HEPES buffer (pH 7.4) containing 150 mM NaCl.
After at least 2 h of incubation at 37°C and 10 min of centrifugation at 16,000 g, steady-state fluorescence measurements were performed with the supernatant at 25°C on a Horiba Fluoromax 4 system with both excitation and emission slits at 3 nm. The excitation wavelength was set at 439 nm, and emission spectra were recorded from 480 to 650 nm. For FRET measurements with SDS, several concentrations of SDS, both below and above the CMC determined for the given buffer conditions, were used, and hydrated samples were incubated overnight.
Energy transfer E was calculated using the donor fluorescence intensities at 525 nm in presence and absence of acceptor according to [drawing 1] (1)
Besides formation of GpA dimers, the recorded energy transfer might, in principle, also originate from formation of higher-ordered oligomeric structures, such as trimers or tetramers, or even from unspecific peptide aggregation. […]

[3] = target: T1, human GpA TM domain; assay: Reversibility of SDS-mediated GpA dimer dissociation, FRET after dilution of SDS; format: binding; details: n = 3
Experimental: For Förster resonance energy transfer (FRET) measurements, equal concentrations of FL- and TAMRA-labeled GpA TM domains were used. Concentrations of the peptide stock solutions were determined from absorbance measurements on a Perkin Elmer Lambda 35 UV/VIS spectrophotometer. In all experiments, we used 0.25 µM for each of the two labeled GpA peptides. Peptides dissolved in TFE and A8-35 dissolved in ethanol were mixed, and organic solvents were removed under a gentle stream of nitrogen gas. Residual solvent traces were removed by vacuum desiccation overnight. The dried peptide/polymer film was then hydrated in 10 mM HEPES buffer (pH 7.4) containing 150 mM NaCl.
After at least 2 h of incubation at 37°C and 10 min of centrifugation at 16,000 g, steady-state fluorescence measurements were performed with the supernatant at 25°C on a Horiba Fluoromax 4 system with both excitation and emission slits at 3 nm. The excitation wavelength was set at 439 nm, and emission spectra were recorded from 480 to 650 nm. For FRET measurements with SDS, several concentrations of SDS, both below and above the CMC determined for the given buffer conditions, were used, and hydrated samples were incubated overnight. […]

[4] = tested on: GpA TM helix dimer; details: ref [24], listed as GpA dimer; cited from earlier work
Description: Thermal denaturation of MPs often leads to irreversible aggregation of the MP, and guanidine hydrochloride and urea, which are frequently used in unfolding studies involving soluble proteins, do typically not denature the TM regions of MPs. This is why the thermodynamic stability of integral MPs within membrane-mimetic systems is often assessed by titrating increasing concentrations of the anionic detergent SDS to MPs dissolved in a mild detergent, such as DDM [24], [40]-[44]. SDS is able to form mixed micelles with other detergents typically used for MP solubilization. […] This indicates a strong destabilizati ...

[5] = tested on: GpA TM dimer; details: SDS, DDMAB, DPC, lyso-PC, ref [26]-[28], cited from earlier work

## CC[C@H](C)[C@H](NC(=O)CNC(=O)[C@H](Cc1ccc(O)cc1)NC(=O)[C@H](CO)NC(=O)[C@@H](NC(=O)[C@H](CC(C)C)NC(=O)[C@H](CC(C)C)NC(=O)[C@@H](NC(=O)[C@@H](NC(=O)CNC(=O)[C@@H](NC(=O)[C@@H](NC(=O)CNC(=O)[C@H](C)NC(=O)[C@H](CCSC)NC(=O)[C@@H](NC(=O)CNC(=O)[C@H](Cc1ccccc1)NC(=O)[C@@H](NC(=O)[C@@H](NC(=O)[C@H](CC(C)C)NC(=O)[C@@H](NC(=O)[C@@H](NC(=O)[C@H](CCC(=O)O)NC(=O)[C@@H]1CCCN1C(=O)[C@H](CCC(=O)O)NC(=O)[C@@H](N)CO)[C@@H](C)CC)[C@@H](C)O)[C@@H](C)CC)[C@@H](C)CC)C(C)C)C(C)C)[C@@H](C)CC)[C@@H](C)O)[C@@H](C)CC)[C@@H](C)CC)C(=O)N[C@@H](CCCNC(=N)N)C(=O)N[C@@H](CCCNC(=N)N)C(=O)N[C@@H](CC(C)C)C(=O)N[C@H](C(=O)N[C@@H](CCCCN)C(=O)N[C@@H](CCCCN)C(=O)O)[C@@H](C)CC [GpA TM domain]
[1]; 5 µM A8-35, 10 mM phosphate buffer pH 7.4
  α-helix content: 67%
[1]; A8-35 concentrations above 5 µM, CD, 5 µM peptide
  effect of higher APol concentrations on peptide's secondary structure: did not significantly affect the peptide's secondary structure
[1]; in 5 mM DDM
  α-helix content: 79%
[1]; in 5 mM SDS
  α-helix content: 76%
[1]; in TFE (pure)
  α-helix content: 62%
[2]; 5 µM A8-35
  stoichiometry of association (energy transfer vs acceptor mole fraction): exclusive dimer formation
[2]; 50 µM A8-35
  stoichiometry of association (energy transfer vs acceptor mole fraction): exclusive dimer formation
[3]; 2 mM SDS diluted to 0.4 mM SDS, constant 20 µM A8-35 and peptide
  reversibility of dissociation and association of GpA TM helix: fully reversible
[3]; 2 mM SDS sample diluted to 0.4 mM SDS, 20 µM A8-35
  fraction dimer after dilution from higher SDS concentration: comparable to that observed at 0.4 mM SDS
[4]
  dissociation of GpA dimer in mixed DDM/SDS micelles: completely unfolded
[5]; compared to A8-35
  dissociation constants of the GpA TM dimer upon further addition of detergent: increase significantly
[5]; read-out: dissociation constants of the GpA TM dimer in detergents, low detergent concentrations
  Kd: ≤ 500 nM
